Test results reported in ChEMBL document CHEMBL1157539, “Thousands of chemical starting points for antimalarial lead identification” (Nature, 2010).

Test system: Plasmodium falciparum
Assay: GSK_TCMDC: Inhibition of Plasmodium falciparum 3D7 in whole erythrocytes, using parasite LDH activity as an index of growth.
Type: functional, organism-based

| SMILES | XC50 (Plasmodium falciparum, 3D7) | XC50 |
| --- | --- | --- |
| CC(C)(CNC(=O)C1CCN(CCOc2ccc(Cl)cc2)CC1)c1nc(-c2ccc(Cl)c(O)c2)c(-c2ccncc2)[nH]1 | 709 nM | – |
| C=CCn1c(C)cc(C(=O)COc2ccc(S(=O)(=O)N3CCOCC3)cc2[N+](=O)[O-])c1C | 1110 nM | – |
| O=C(Nc1cccc(F)c1)NC1CCN(c2ccnc3cc(Cl)ccc23)CC1 | 609 nM | – |
| CC[C@H]1CN2CC[C@@H]1C[C@H]2[C@H](O)c1cc(N2CCC(O)(c3ccc(Cl)cc3)CC2)nc2ccc(OC)cc12 | 71 nM | – |
| CN(C)CCCOc1ccc(CNCc2cccc(Oc3ccc(Cl)cc3)c2)cc1 | 824 nM | – |
| CCCCCC1c2[nH]c3ccccc3c2CCN1C(=O)OCc1ccccc1 (centres undefined) | 389 nM | – |
| COc1ccc(CCNCCCCNCCc2ccc(OC)c3ccccc23)c2ccccc12 | 453 nM | – |
| O=C(c1ccc([N+](=O)[O-])o1)N1CCN(c2ccccc2)CC1 | 40 nM | – |
| Cc1cc(NCC2CCN(CC3CCCCC3)C2)nc(Nc2ccc(Br)cc2)n1 (centres undefined) | 879 nM | – |
| OCC1CCN(Cc2ccc(-c3cccc(-c4nc5cc(C(F)(F)F)ccc5[nH]4)c3)cc2)CC1 | 483 nM | – |
| C=CCn1c(=N)n(CC(O)c2ccc(Cl)c(Cl)c2)c2ccccc21 (centres undefined) | 338 nM | – |
| CC1(C)C(=O)Nc2ccccc2N1C(=O)CN1CCN(c2ccccc2O)CC1 | 1070 nM | – |
| Clc1cccc(Cl)c1CCNCC1CCN(CC2CCCCC2)CC1 | 212 nM | – |
| Cc1cc(O)c(CN(C)Cc2ccc(N(C)C)cc2)cc1C(C)C | 550 nM | – |
| CC12CC3CC(C)(C1)CC(Nc1nc(N4CCOCC4)nc4ccccc14)(C3)C2 | 938 nM | – |
| O=C(/C=C/c1ccc(Cl)cc1)NC1CCC(CN2CCC(c3c[nH]c4ccccc34)CC2)CC1 (centres undefined) | 727 nM | 800 nM |
| Cc1cccc(Nc2nccc(NCC(O)c3ccc(C(F)(F)F)cc3)n2)c1 (centres undefined) | 555 nM | – |
| COc1ccc(C2C(C(=O)Nc3ccc(C)cc3Br)c3ccccc3C(=O)N2C)cc1 (centres undefined) | 941 nM | – |
| O=C(NCCN1CCCc2ccccc21)C1CCN(c2nc(-c3ccc(Cl)cc3)no2)CC1 | 695 nM | – |
| CCCc1cc(NC2CCN(C)CC2)nc(Nc2ccc(F)cc2)n1 | 801 nM | – |
| Cc1cccc(CCNC(=O)c2cc(Br)cc(N3CCN(c4ccncc4)CC3)c2)c1 | 874 nM | – |
| O=C(Nc1ccc(-c2cccc(-c3nc4cc(F)ccc4[nH]3)c2)cc1)Nc1ccc(F)c(F)c1F | 739 nM | – |
| Cc1cc(N[C@@H](Cc2ccccc2)C(=O)NCCc2ccccc2)nc(NCCc2ccc(F)cc2)n1 | 661 nM | – |
| NCCNc1ccc([N+](=O)[O-])cc1C(=O)Nc1cccc(Cl)c1 | 1260 nM | – |

| SMILES | XC50 (Plasmodium falciparum, 3D7) | XC50 |
| --- | --- | --- |
| O=C(Nc1cccc(-c2nn3ccccc3c2-c2ccnc(Nc3ccccc3)n2)c1)c1c(F)cccc1F | 715 nM | – |
| CC(C)CNCc1cccc(-c2cccc(CN(C(=O)Nc3ccccc3)C3CCN(Cc4ccccc4)CC3)c2)c1 | 369 nM | – |
| CCNc1cc(C(=O)NC(Cc2ccccc2)C(O)CNC(C)(C)CCCC(C)C)c(F)c(N2CCCS2(=O)=O)c1 (centres undefined) | 197 nM | – |
| Cc1ccc(Nc2nnc(SCC(=O)Nc3ccc(CN4CCCC4)cc3)s2)cc1 | 1210 nM | – |
| CCOC(=O)NC1=NC(=N)N(OCc2ccc(Cl)c(Cl)c2)C(C)(C)N1 | 40.7 nM | – |
| O=C(NCCNc1ccnc2cc(Cl)ccc12)c1ccccc1F | 655 nM | – |
| O=c1sn(-c2csc3ccccc23)c2ccccc12 | 339 nM | – |
| CC[C@H]1CN(Cc2cccc(O)c2)CC[C@H]1CCCc1ccnc2ccc(O)cc12 | 534 nM | – |
| FC(F)(F)c1ccc2c(NN=Cc3cccc(Cl)c3)ccnc2c1 | 838 nM | – |
| CCOC(=O)N[C@@H]1CN[C@@H](C#Cc2cc3c(Nc4ccc(OCc5cccc(F)c5)c(Cl)c4)ncnc3s2)C1 | 1080 nM | – |
| COc1ccc(COc2cc(NCCCN)nc3ccccc23)cc1 | 1280 nM | – |
| CSc1c(CNCCCNc2cc(=O)c3ccccc3[nH]2)[nH]c2ccccc12 | 1120 nM | – |
| CC(C)CN(c1nc(C(=O)NNC(=O)[C@H](CC2CC2)NC(=O)c2cc3cc(OCCN(C)C)ccc3o2)cs1)C1CC1 | 1030 nM | – |
| O=C(Nc1ccccc1O)c1ccc(S(=O)(=O)c2ccc(Cl)cc2)cc1 | 1350 nM | – |
| Fc1ccc(-c2cc(NCCCn3ccnc3)nc(-c3cccnc3)n2)cc1 | 974 nM | – |
| CC(C)(C)c1nn(-c2ccc(Cl)cc2)c2[nH]c(=O)c(CNC3CCCC3)cc12 | 234 nM | – |
| COc1ccc(-c2nc(-c3ccc([N+](=O)[O-])cc3)no2)cc1OC | 409 nM | – |
| Cc1cc(N)nc2ccc(-c3ccc(CCN)cc3)cc12 | 621 nM | – |
| COc1cccc(C(=O)NCCc2cccc(Cl)c2)c1OCc1ccccc1 | 1260 nM | – |
| CCOc1ccc2c(=NN=Cc3c4ccccc4cc4ccccc34)cc(C)[nH]c2c1 | 1070 nM | – |
| Cc1ccccc1C1CCN(C2CCC(NC(=O)c3ccc(-c4cc(C(F)(F)F)nn4C)s3)CC2)CC1 (centres undefined) | 846 nM | – |
| CCOc1cc2c(cc1OCC)C(c1cc(OC)c(O)cc1Cl)NCC2 (centres undefined) | 748 nM | – |
| Clc1cc(Nc2ncnc3sc(C#C[C@H]4CCCN4)cc23)ccc1OCc1cccnc1Cl | 569 nM | – |
| Oc1ccc(CCNc2nc(NCCOc3cccc4ccccc34)nc(N3CCNCC3)n2)cc1 | 901 nM | – |

| SMILES | XC50 (Plasmodium falciparum, 3D7) | XC50 |
| --- | --- | --- |
| CCCN(CCC)C(=O)c1cc(C(=O)N[C@@H](Cc2ccccc2)[C@H](O)CNCc2cccc(C(F)(F)F)c2)cc(N2CCCCS2(=O)=O)c1 | 876 nM | – |
| COc1ccc(-c2ccc(NC(=O)c3ccc(C#N)cc3)cc2)cc1CN1CCNCC1 | 505 nM | – |
| CN1CCN(CC(=O)Nc2ccc(-c3ccc(-c4nc5ccccc5[nH]4)cc3)cc2)CC1 | 696 nM | – |
| Cc1cccc2nc(-c3cccc(-c4cccc(CNCCNC(=O)c5ccnn5C)c4)c3)[nH]c12 | 192 nM | – |
| Cc1[nH]c(C)c(-c2ccc(Oc3cccc(Cl)c3)cc2)c(=O)c1Br | 34.2 nM | – |
| OCC1CCN(Cc2ccc(-c3ccc(-c4nc5cc(F)ccc5[nH]4)cc3)cc2)CC1 | 845 nM | – |
| Cc1ccn2cc(-c3ccc(NC(=O)c4ccc(Br)o4)cc3)nc2c1 | 741 nM | – |
| CC(C)N1CCN(c2ccc(OCCCCN3CCN(c4cccc(Cl)c4Cl)CC3)cc2Cl)CC1 | 1040 nM | – |
| Cn1nc(-c2ccc(S(=O)(=O)NC3CCC(CN4CCC(c5c[nH]c6ccccc56)CC4)CC3)s2)cc1C(F)(F)F (centres undefined) | 820 nM | 835 nM |
| COc1ccc2nc3cc(Cl)ccc3c(NCCNCC(O)CO)c2n1 (centres undefined) | 152 nM | – |
| CC(=O)Nc1ccc(C(=O)NC2CCN(c3ccnc4cc(Cl)ccc34)C2)cc1 (centres undefined) | 806 nM | – |
| O=C1CCCN1CCCNCc1ccc(-c2ccc(-c3nc4cc(F)ccc4[nH]3)cc2)cc1 | 603 nM | – |
| Cc1c(Cc2ccccc2Cl)cnc2nc(N)nc(N)c12 | 7.42 nM | – |
| OC(CNc1ccnc(Nc2cccc(CCN3CCOCC3)c2)n1)c1ccccc1 (centres undefined) | 594 nM | – |
| O=C(NCCNc1noc(-c2sccc2Br)n1)c1ccc(Cl)cc1 | 1170 nM | – |
| CCCCCCCc1cc(O)c2c3c(c(=O)oc2c1)CN(C)CC3 | 144 nM | – |
| Cc1nc(N)nc(N)c1OCCCOc1cccc(Cl)c1Cl | 2.56 nM | – |
| COc1cccc(C(O)CNc2ccnc(Nc3cccc(-c4csc(C)n4)c3)n2)c1 (centres undefined) | 786 nM | – |
| O=C1CCCN1CCCNCc1ccc(-c2cccc(-c3nc4cc(C(F)(F)F)ccc4[nH]3)c2)cc1 | 191 nM | – |
| O=S(=O)(c1ccc2ccccc2c1)N1CCCN(Cc2ccc(OCCCN3CCCCC3)cc2)CC1 | 1100 nM | – |
| N#Cc1ccc(CN2CCC(Oc3ccc(NC(=O)c4ccco4)cc3Cl)CC2)cc1 | 379 nM | – |
| Cn1ccnc1S(=O)(=O)CCNCc1ccc(-c2ccc3ncnc(Nc4ccc(OCc5cccc(F)c5)c(Cl)c4)c3c2)o1 | 701 nM | – |
| CCN(CCCN1CCCCC1)c1nccc(Nc2ccc(Cl)cc2)n1 | 1190 nM | – |
| N#Cc1cc([N+](=O)[O-])ccc1-n1nc(-c2cccc(Cl)c2)n(Cc2ccco2)c1=S | 196 nM | – |
